Reference: US5077277A, “Chemical derivatives of antibiotics LL-E19020 alpha and beta” (American Cyanamid Company, priority 1989, dated 1991)

Key:
Type in all cases: cell-based
Details in all cases: 18 hours incubation
[1] = system: Streptococcus pneumoniae K 84-21; experiment: In vitro antibacterial activity, standard agar dilution (MIC)
[2] = system: Peptococcus asaccharolyticus ATCC 29743; experiment: as above
[3] = system: Bacteroides vulgaris ATCC 29327; experiment: as above
[4] = system: Clostridium perfringens ATCC 13124
[5] = system: Clostridium difficile ATCC 17858; experiment: In vitro antibacterial activity, standard agar dilution (MIC)
[6] = system: Streptococcus pneumoniae SV-1; experiment: as above
[7] = system: Streptococcus b-hemolyticus C 203; experiment: as above
[8] = system: Streptococcus b-hemolyticus VGH 84-62; experiment: as above
[9] = system: Streptococcus b-hemolyticus VGH 0.5; experiment: as above
[10] = system: Peptococcus magnus ATCC 14956; experiment: as above
[11] = system: Streptococcus b-hemolyticus VGH 84-60; experiment: as above
[12] = system: Peptococcus magnus ATCC 29328; experiment: as above

Row | Molecule | Minimal Inhibitory Concentration [1] [µg/mL] | Minimal Inhibitory Concentration [2] [µg/mL] | Minimal Inhibitory Concentration [3] [µg/mL] | Minimal Inhibitory Concentration [4] [µg/mL] | Minimal Inhibitory Concentration [5] [µg/mL] | Minimal Inhibitory Concentration [6] [µg/mL] | Minimal Inhibitory Concentration [7] [µg/mL] | Minimal Inhibitory Concentration [8] [µg/mL] | Minimal Inhibitory Concentration [9] [µg/mL] | Minimal Inhibitory Concentration [10] [µg/mL] | Minimal Inhibitory Concentration [11] [µg/mL] | Minimal Inhibitory Concentration [12] [µg/mL]
1 | C/C=C\C=C\C1OC(O)(C(CNC(=O)Cc2ccccc2)C(=O)NC/C=C/C=C(\C)C(OC)C(C)C2CC(O)C(/C=C/C=C/C=C/C(=O)O)O2)C(O)C(O)C1(C)C (stereo not drawn) [Compound I, Ammonolysis Product of LL-E19020 α and β] | > 128 | 0.25 | 128 | > 128 | 4 | 64 | 8 | 16 | 16 | ≤ 0.06 | 4 | 0.25
2 | Aglycone Methyl Ester of LL-E19020β [Compound VI] | > 128 | 0.5 | > 128 | > 128 | – | > 128 | > 128 | > 128 | > 128 | 0.5 | > 128 | 0.5
3 | Methyl Ester of LL-E19020α [Compound II] | 8 | ≤ 0.06 | 128 | 64 | 2 | 4 | 0.12 | 2 | 2 | ≤ 0.06 | 0.5 | ≤ 0.06
4 | Methyl Ester of LL-E19020β [Compound III] | 32 | ≤ 0.06 | 16 | > 128 | 8 | 8 | 2 | 8 | 8 | ≤ 0.06 | 2 | ≤ 0.06
5 | Monosaccharide of Methyl Ester of LL-E19020α [Compound IV] | 16 | ≤ 0.06 | > 128 | > 128 | 8 | 16 | 4 | 8 | 8 | ≤ 0.06 | 2 | ≤ 0.06
6 | Monosaccharide of Methyl Ester of LL-E19020β [Compound V] | 64 | ≤ 0.06 | > 128 | > 128 | 64 | 32 | 8 | 32 | 32 | ≤ 0.06 | 8 | ≤ 0.06
